# Data from patent US7994219B2, “Approach to anti-microbial host defense with molecular shields with lipoxin compounds” (The Brigham and Women's Hospital, Inc., priority 2001, dated 2011).
# Columns and labels:
# [1] = tested on: BPI; assay: RT-PCR of BPI transcript in OKF6, T84 and Caco2 epithelial cells; assay type: cell-based, human
# [2] = tested on: BPI; assay: Semi-quantitative RT-PCR of BPI transcript in KB cells; assay type: cell-based, human
# [3] = tested on: BPI; assay: Quantitative genechip microarray transcriptional profile of KB epithelial cells exposed to ATLa; assay type: cell-based, human; conditions: 1 μM ATLa
# [4] = tested on: BPI; assay: Immunoprecipitation of biotinylated plasma membrane protein and avidin blot for surface BPI in T84 cells; assay type: cell-based, human; conditions: 1 μM ATLa, at 36 h
# Experimental: Epithelial cells were grown to confluence on 45 cm^2 permeable supports, and exposed to ATLa or vehicle (0.01% EtOH), as indicated. Cells were washed extensively in HBSS, cooled to 4° C., and extracellular proteins were biotinylated (1 mM NHS-biotin (Pierce Chemical Co., Rockford, Ill.) in HBSS) as previously described (18). Plasma membranes were isolated using nitrogen cavitation (200 psi, 8 min., 4° C.) as previously described (18). Recombinant human BPI (100 ng/ml, was directly biotinylated and excess biotin was removed by multiple washes on a 5 kD cut-off membrane filter (Amicon, Beverly Mass.). Fractions were pre-cleared with 50 μl pre-equilibrated protein-G sepharose (Pharmacia, Uppsala Sweden). Immunoprecipitation of BPI was performed with goat polyclonal anti-BPI followed by addition of 50 μl pre-equilibrated protein-G sepharose and overnight incubation. Washed immunoprecipitates were boiled in non-reducing sample buffer (2.5% SDS, 0.38 M Tris pH 6.8, 20% glycerol, and 0.1% bromophenol blue), resolved by non-reducing SDS-PAGE (18% polyacrylamide gel), transferred to nitrocellulose, and blocked overnight in blocking buffer. Biotinylated proteins were labeled with streptavidin-peroxidase (Pierce Chemical Co., Rockford, Ill.) and visualized by enhanced chemiluminescence (ECL; Amersham, Arlington Heights, Ill.).
# [5] = tested on: BPI; assay: Confocal microscopy of surface BPI on non-permeabilized Caco2 cells; assay type: cell-based, human; conditions: 1 μM for 24 hr
# Experimental: OKF6 or Caco2 cells were grown to confluence on acid washed 12 mm glass coverslips. Monolayers were exposed to indicated experimental conditions, washed once in phosphate buffered saline, and fixed for 10 minutes at room temperature in 1% paraformaldehyde in cacodylate buffer (0.1M sodium cacodylate; pH 7.4, 0.72% sucrose). After washing twice with PBS, the cells were incubated for 1 hour with rabbit polyclonal BPI antisera (1:300 dilution) or control sera (equivalent dilution depleted of specific antibody through 3 consecutive adsorptions with sepharose beads covalently linked to rBPI via cyanogens bromide coupling, kit from Pierce Chemical Co., Rockford, Ill.). After washing, the monolayers were incubated with goat anti-rabbit Oregon Green (1 μg/ml, Molecular Probes, Eugene, Oreg.). Cells were imaged on a BioRad MRC-600 confocal fluorescence microscope.
# [6] = tested on: Salmonella typhimurium; assay: Bacterial killing assay: adherent Caco2 cells with Salmonella typhimurium (CFU); assay type: cell-based; conditions: Caco2 pre-exposure to 1 μM ATLa, 24 hr; killing over 60 min
# Experimental: Salmonella typhimurium (strain 14028 from American Type Culture Collection, Rockville, Md.) were cultured and grown in Luria broth as previously described (22). In subsets of experiments, Enterococcus faecalis (strain PCI 1326 from American Type Culture Collection, Rockville, Md.) were cultured as previously described (23). Caco2 epithelial cells were grown to confluence of 60 mm petri dishes and exposed to indicated experimental conditions. Cells were washed once with HBSS, and washed bacteria were added to epithelial monolayers at a ratio of 50 bacteria per adherent epithelial cell. Incubations were allowed to proceed for 90 minutes or as indicated on a rotating platform. Parallel samples omitting epithelial cells were used as controls. Following incubation, supernatants were collected and epithelial cells were hypotonically lysed with 1 ml ice cold water. Bacteria were pelleted, dilutions of both pellets and supernatants were plated, incubated overnight at 37° C., and colony counts were performed. In subsets of experiments, anti-BPI antisera (1:300 in HBSS) or anti-BPI antisera pre-adsorbed with rBPI (1:300 in HBSS), as indicated, were added 30 minutes prior to incubation with bacteria. Data are presented as the mean±S.E.M. CFU.
# [7] = tested on: bacteria; assay: Direct incubation of ATLa or anti-BPI with bacteria and colony counts; assay type: cell-based; conditions: direct incubation with bacteria, no epithelial cells; data not shown
compound,measurement,setting,value
pertussis toxin [reference compound],decrease in BPI induction by ATLa,"[1]; Caco2 pre-exposure to pertussis toxin 1 μM, 30 min, ATLa 1 μM, 18 h",65%
"CCCCCC/C=C/C=C/C=C/C=C/[C@@H](O)[C@@H](O)CCCC(=O)O [15-deoxy-LXA4, reference compound]",induction of BPI at the mRNA level,"[2]; epithelial exposure to similar concentrations as ATLa, data not shown",no induction
"O=C(O)CCC[C@H](O)[C@H](O)/C=C/C=C/C=C\C=C\[C@@H](O)COc1ccc(F)cc1 [ATLa, 15-epi-16-(para-fluoro)-phenoxy-LXA4]",BPI mRNA increase over control (microarray),[3]; 4 hrs exposure,3.2 fold
same,BPI mRNA increase over control (microarray),[3]; 8 hrs exposure,2.9 fold
same,maximal increase of BPI transcript relative to β-actin by densitometry,"[2]; KB cells, 1 μM, 8 h, compared to vehicle control",4.3 fold
same,EC50,"[2]; KB cells, 8 hr, 28 cycles of PCR, approximate, read-out: EC50 of BPI transcript induction (dose response)",~50 nM
same,BPI induction relative to β-actin,"[1]; OKF6, T84 and Caco2 cells, 1 μM, 26 cycles of PCR",prominent pattern of time-dependent BPI induction
same,maximal increase of ~55 kDa surface protein consistent with BPI by densitometry,[4],12.5 fold
same,surface-bound BPI expression,[5],increased expression
same,increase in killing of S. typhimurium,[6],~60%
same,direct bactericidal activity or non-specific agglutination,[7],not explained by bactericidal activity or non-specific agglutination
